Reference: patent publication US20060127980A1, “Human excitatory amino acid transporter-2 gene promoter and uses thereof” (priority 2003, published 2006)
Starred links: 1 amine or outer side, 2 acyl side, 3 side chain; linkers in the order of their positions; H or OH if unused. Positions of bridges follow the written chain, without caps; N, C: chain ends. Non-standard residues stand in square brackets, D forms with d. Residues, ends and D or L forms follow the SMILES beside them. Chains are numbered I, II in the order given. Actinocin(9to1) = Cc1c2oc3c(C)ccc(C(=O)[*:1])c3nc-2c(C(=O)[*:2])c(N)c1=O; NMeV = CN[C@H](C(=O)O)C(C)C; Sar = CNCC(=O)O

How the values were obtained:
rat astrocytes = conditions: Zelenaia et al., 2000; cited from earlier work
hEAAT2 promoter [1] = assay: hEAAT2 promoter luciferase assay of agents in PHFA (FIG. 10); type: cell-based, human; conditions: PHFA passage #3; 10 μM
Procedure: (§1) FIG. 10. Effect of various agents on hEAAT2 promoter activity on primary human fetal astrocytes (PHFA). A: ceftriaxone; B: amoxicillin; C: chloramphenicol; D: thiamphenicol; E: vancomycin; F: glycine; G: glutamate; H: DMSO; I: dibutyryl cAMP. PHFA (passage #3) were seeded at 1×10^5 cells/35-mm plate. Twenty-four h later cells were untreated (CON) or received the indicated compound at a final concentration of 10 μM. Forty-eight h later the cells were transfected with a FL pGL3/EAAT2 luciferase reporter construct (5 μg) plus a pSVβGalactosidase construct (1 μg) using the calcium phosphate precipitation method (Su et al. 2003, Proc. Natl. Acad. Sci. USA 100:1955-1960). After an additional 48 h, cell lysates were prepared and luciferase activity was determined using the Luciferase Assay System Kit (Promega, E1501) and luminescence determined using a luminometer (Turner Designs, TD20/20) (Su et al. 2003, Proc. Natl. Acad. Sci. USA 100:1955-1960). Data presented are the average of 3 independent plates±S.D. Qualitatively similar results were obtained in 2 additional experiments.
as §1, with “Identification of Agents that Modulate hEAAT2 Promoter Activity. FIGS. 10-12 show the effects” for “FIG. 10. Effect”, “in PHFA (FIG. 10), PHFA-Im (FIG. 11) and H4 glioma (FIG. 12) cells. In the studies shown in FIG. 10,” for “on primary human fetal astrocytes (PHFA). A: ceftriaxone; B: amoxicillin; C: chloramphenicol; D: thiamphenicol; E: vancomycin; F: glycine; G: glutamate; H: DMSO; I: dibutyryl cAMP.”

hEAAT2 promoter [2] = assay: hEAAT2 promoter luciferase assay of agents in PHFA-Im (FIG. 11); type: cell-based, human; conditions: 10 μM
Procedure: as §1, with “FIG. 11.” for “FIG. 10.”, “activity in immortalized” for “activity on”, “astrocytes (PHFA-Im).” for “astrocytes (PHFA).”, “cAMP. PHFA-Im is a human telomerase-immortalized clone of primary human fetal astrocytes. PHFA-Im cells” for “cAMP. PHFA (passage #3)”, “at 5×10^4” for “at 1×10^5”
as §1, with “The effects” for “FIG. 10. Effect”, “these same” for “various”, “also were examined in two other cell lines to confirm the generality of the findings. […] PHFA-Im is a cell line developed from a clonal isolate of a” for “on hEAAT2 promoter activity on”, “astrocyte immortalized by transformation with the reverse transcriptase subunit of human telomerase. PHFA-Im cells” for “astrocytes (PHFA). A: ceftriaxone; B: amoxicillin; C: chloramphenicol; D: thiamphenicol; E: vancomycin; F: glycine; G: glutamate; H: DMSO; I: dibutyryl cAMP. PHFA (passage #3)”, “5×10^4” for “1×10^5”

hEAAT2 promoter [3] = assay: hEAAT2 promoter luciferase assay of agents in H4 glioma cells (FIG. 12); type: cell-based, human; conditions: H4 malignant glioma cells; 10 μM
Procedure: as §1, with “12.” for “10.”, “in H4” for “on primary”, “malignant glioma cells.” for “fetal astrocytes (PHFA).”, “H4 is a rare clone of malignant glioma cells that support hEAAT2 promoter activity. H4 cells” for “PHFA (passage #3)”, “5×10^4” for “1×10^5”
as §1, with “H4, the third cell line examined, is a rare clone” for “FIG. 10. Effect”, “malignant glioma cells that support” for “various agents on”, “activity. In the studies shown in FIG. 12, H4 cells” for “activity on primary human fetal astrocytes (PHFA). A: ceftriaxone; B: amoxicillin; C: chloramphenicol; D: thiamphenicol; E: vancomycin; F: glycine; G: glutamate; H: DMSO; I: dibutyryl cAMP. PHFA (passage #3)”, “5×10^4” for “1×10^5”

hEAAT2 promoter activity (hEAAT2 promoter [1]) | hEAAT2 promoter activity (hEAAT2 promoter [2]) | SMILES | toxicity (rat astrocytes) | hEAAT2 promoter activity (hEAAT2 promoter [3])
 |  | Cc1c2oc3c(C)ccc(C(=O)N[C@@H]4C(=O)N[C@H](C(C)C)C(=O)N5CCC[C@H]5C(=O)N(C)CC(=O)N(C)[C@@H](C(C)C)C(=O)O[C@@H]4C)c3nc-2c(C(=O)N[C@@H]2C(=O)N[C@H](C(C)C)C(=O)N3CCC[C@H]3C(=O)N(C)CC(=O)N(C)[C@@H](C(C)C)C(=O)O[C@@H]2C)c(N)c1=O [actinomycin D] (I: T[dV]P[Sar][NMeV] / II: T[dV]P[Sar][NMeV]; ester I:1-I:C, II:1-II:C; linker I:N-II:N via Actinocin(9to1)) | toxic | 
potent stimulators | potent stimulators | CO/N=C(\C(=O)N[C@@H]1C(=O)N2C(C(=O)O)=C(CSc3nc(=O)c(=O)[nH]n3C)CS[C@H]12)c1csc(N)n1 [ceftriaxone] |  | potent stimulators
potent stimulators | potent stimulators | O=C(N[C@H](CO)[C@H](O)c1ccc([N+](=O)[O-])cc1)C(Cl)Cl [chloramphenicol] |  | potent stimulators
potent stimulators | potent stimulators | CS(=O)(=O)c1ccc([C@@H](O)[C@@H](CO)NC(=O)C(Cl)Cl)cc1 [thiamphenicol] |  | potent stimulators
